Consider 21 compounds from US20230159532A1, “PARATHYROID HORMONE (PTH) RECEPTOR ANTAGONISTS AND USES THEREOF” (Crinetics Pharmaceuticals, Inc., priority 2021, published 2023).

For this experiment, the target named is T1, human PTHR1 receptor (Homo sapiens, UniProt Q03431).
T1 construct: purchased Eurofins HTS030M
T1 sequence (Q03431 27-593): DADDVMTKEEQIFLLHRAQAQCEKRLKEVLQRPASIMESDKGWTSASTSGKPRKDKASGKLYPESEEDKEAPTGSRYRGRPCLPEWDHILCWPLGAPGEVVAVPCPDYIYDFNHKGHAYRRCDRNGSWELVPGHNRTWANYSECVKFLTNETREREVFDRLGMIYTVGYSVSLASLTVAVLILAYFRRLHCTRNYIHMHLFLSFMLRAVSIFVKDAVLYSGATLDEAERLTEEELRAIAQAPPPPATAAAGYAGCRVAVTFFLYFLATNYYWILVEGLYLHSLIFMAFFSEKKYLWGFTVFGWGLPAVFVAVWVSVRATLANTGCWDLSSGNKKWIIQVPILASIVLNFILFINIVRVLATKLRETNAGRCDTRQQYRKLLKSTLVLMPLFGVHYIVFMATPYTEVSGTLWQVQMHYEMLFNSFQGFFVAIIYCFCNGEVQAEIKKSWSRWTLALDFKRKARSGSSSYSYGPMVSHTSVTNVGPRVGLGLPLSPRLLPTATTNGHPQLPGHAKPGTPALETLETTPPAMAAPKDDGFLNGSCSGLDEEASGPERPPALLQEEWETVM
As to the kind of experiment: Competitive antagonist binding assay for hPTH-R1 (radioactive competition binding, SPA beads). The following applies: human PTHR1 membranes, [125I]-[Nle8,18,Tyr34]-PTH(1-34) 0.2 nM, 90 minutes at room temperature; read-out: hPTHR1 Ki. The gist of the method: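 Displacement of 0.2 nM radioiodinated [Nle8,18,Tyr34]-PTH(1-34) from membrane-bound human PTHR1 measured by scintillation proximity after 90 min at room temperature. Compounds typically 0-10,000 nM final, pH 7.4 HEPES/Mg/Ca buffer with BSA and detergent. Ki calculated from competition data.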

SMILES strings stand for the structures. pKi: −log10 of the molar value.

Turning to `CCN1C(=O)N(c2c(F)cc(NCCN[C@H]3C[C@@H](O)C3)cc2F)c2cc(C#N)ccc2-c2cc(C(F)(F)F)cnc21` [1-207, 10-{2,6-difluoro-4-[(2-{[(1s,3s)-3-hydroxycyclobutyl]amino}ethyl)amino]phenyl}-8-ethyl-9-oxo-4-(trifluoromethyl)-6,8,10-triazatricyclo[9.4.0.0^2,7]pentadeca-1(11),2(7),3,5,12,14-hexaene-13-carbonitrile], the pKi was above 7.00.
The value for `CCN1C(=O)N(c2c(F)cc(NCCNCCO)cc2F)c2cc(C#N)ccc2-c2cc(C)cnc21` [1-208, 10-[2,6-difluoro-4-({2-[(2-hydroxyethyl)amino]ethyl}amino)phenyl]-8-ethyl-4-methyl-9-oxo-6,8,10-triazatricyclo[9.4.0.0^2,7]pentadeca-1(11),2(7),3,5,12,14-hexaene-13-carbonitrile] was above 7.00.
With `CCN1C(=O)N(c2c(F)cc(NCCNCCC(C)(C)C(=O)O)cc2F)c2cc(C#N)ccc2-c2cc(Cl)cnc21` [1-209, 4-({2-[(4-{4-chloro-13-cyano-8-ethyl-9-oxo-6,8,10-triazatricyclo[9.4.0.0^2,7]pentadeca-1(11),2(7),3,5,12,14-hexaen-10-yl}-3,5-difluorophenyl)amino]ethyl}amino)-2,2-dimethylbutanoic acid] the figure was above 7.00.
With `CCN1C(=O)N(c2c(F)cc(NCCN[C@@H](CO)C(=O)O)cc2F)c2cc(C#N)ccc2-c2cc(Cl)cnc21` [1-210, (2S)-2-({2-[(4-{4-chloro-13-cyano-8-ethyl-9-oxo-6,8,10-triazatricyclo[9.4.0.0^2,7]pentadeca-1(11),2(7),3,5,12,14-hexaen-10-yl}-3,5-difluorophenyl)amino]ethyl}amino)-3-hydroxypropanoic acid] the figure was above 7.00; with `CC(C)N1C(=O)N(c2c(F)cc(N3CC[C@@H](N)C3)cc2F)c2cc(C#N)cc(F)c2-c2cc(F)cnc21` [1-212, 10-{4-[(3R)-3-aminopyrrolidin-1-yl]-2,6-difluorophenyl}-4,15-difluoro-9-oxo-8-(propan-2-yl)-6,8,10-triazatricyclo[9.4.0.0^2,7]pentadeca-1(15),2(7),3,5,11,13-hexaene-13-carbonitrile], above 7.00.
Consider `CCN1C(=O)N(c2c(F)cc(NCCN[C@@H](C)CO)cc2F)c2cc(C#N)ccc2-c2cc(F)cnc21` [1-213, 10-{2,6-difluoro-4-[(2-{[(2S)-1-hydroxypropan-2-yl]amino}ethyl)amino]phenyl}-8-ethyl-4-fluoro-9-oxo-6,8,10-triazatricyclo[9.4.0.0^2,7]pentadeca-1(11),2(7),3,5,12,14-hexaene-13-carbonitrile], for which the pKi is above 7.00.
The value for `CCN1C(=O)N(c2c(F)cc(NCCN[C@H](C)CO)cc2F)c2cc(C#N)ccc2-c2cc(F)cnc21` [1-214, 10-{2,6-difluoro-4-[(2-{[(2R)-1-hydroxypropan-2-yl]amino}ethyl)amino]phenyl}-8-ethyl-4-fluoro-9-oxo-6,8,10-triazatricyclo[9.4.0.0^2,7]pentadeca-1(11),2(7),3,5,12,14-hexaene-13-carbonitrile] was above 7.00; that for `CCN1C(=O)N(c2c(F)cc(NCCNCC(=O)O)cc2F)c2cc(C#N)ccc2-c2cc(Cl)cnc21` [1-215, 2-({2-[(4-{4-chloro-13-cyano-8-ethyl-9-oxo-6,8,10-triazatricyclo[9.4.0.0^2,7]pentadeca-1(11),2(7),3,5,12,14-hexaen-10-yl}-3,5-difluorophenyl)amino]ethyl}amino)acetic acid] was above 7.00.
With `CCN1C(=O)N(c2c(F)cc(NCCNCCNC(=O)OC)cc2F)c2cc(C#N)ccc2-c2cc(F)cnc21` [1-216, methyl N-[2-({2-[(4-{13-cyano-8-ethyl-4-fluoro-9-oxo-6,8,10-triazatricyclo[9.4.0.0^2,7]pentadeca-1(11),2(7),3,5,12,14-hexaen-10-yl}-3,5-difluorophenyl)amino]ethyl}amino)ethyl]carbamate] the figure was above 7.00; with `CCN1C(=O)N(c2c(F)cc(NCCN[C@@H]3CC[C@H]3O)cc2F)c2cc(C#N)ccc2-c2cc(F)cnc21` [1-218, 10-{2,6-difluoro-4-[(2-{[(1R,2R)-2-hydroxycyclobutyl]amino}ethyl)amino]phenyl}-8-ethyl-4-fluoro-9-oxo-6,8,10-triazatricyclo[9.4.0.0^2,7]pentadeca-1(11),2(7),3,5,12,14-hexaene-13-carbonitrile], above 7.00.
With `CCN1C(=O)N(c2c(F)cc(NCCN[C@@H](C)C(=O)O)cc2F)c2cc(C#N)ccc2-c2cc(Cl)cnc21` [1-219, (2S)-2-({2-[(4-{4-chloro-13-cyano-8-ethyl-9-oxo-6,8,10-triazatricyclo[9.4.0.0^2,7]pentadeca-1(11),2(7),3,5,12,14-hexaen-10-yl}-3,5-difluorophenyl)amino]ethyl}amino)propanoic acid] the figure was above 7.00.
In the case of `CCN1C(=O)N(c2c(F)cc(NCCN[C@H](CO)C(=O)O)cc2F)c2cc(C#N)ccc2-c2cc(Cl)cnc21` [1-220, (2R)-2-({2-[(4-{4-chloro-13-cyano-8-ethyl-9-oxo-6,8,10-triazatricyclo[9.4.0.0^2,7]pentadeca-1(11),2(7),3,5,12,14-hexaen-10-yl}-3,5-difluorophenyl)amino]ethyl}amino)-3-hydroxypropanoic acid], the pKi was above 7.00.
With `CCN1C(=O)N(c2c(F)cc(NCCNCCCS(=O)(=O)O)cc2F)c2cc(C#N)ccc2-c2cc(F)cnc21` [1-221, 3-({2-[(4-{13-cyano-8-ethyl-4-fluoro-9-oxo-6,8,10-triazatricyclo[9.4.0.0^2,7]pentadeca-1(11),2(7),3,5,12,14-hexaen-10-yl}-3,5-difluorophenyl)amino]ethyl}amino)propane-1-sulfonic acid] the figure was above 7.00.
The value for `CCN1C(=O)N(c2c(F)cc(NCCN[C@H]3C[C@H](O)C3)cc2F)c2cc(C#N)ccc2-c2cc(F)cnc21` [1-222, 10-{2,6-difluoro-4-[(2-{[(1r,3r)-3-hydroxycyclobutyl]amino}ethyl)amino]phenyl}-8-ethyl-4-fluoro-9-oxo-6,8,10-triazatricyclo[9.4.0.0^2,7]pentadeca-1(11),2(7),3,5,12,14-hexaene-13-carbonitrile] was above 7.00; that for `CN1C(=O)N(c2c(F)cc(NCCN)cc2F)c2cc(C#N)ccc2-c2cc(Cl)cnc21` [1-223, 10-{4-[(2-aminoethyl)amino]-2,6-difluorophenyl}-4-chloro-8-methyl-9-oxo-6,8,10-triazatricyclo[9.4.0.0^2,7]pentadeca-1(11),2(7),3,5,12,14-hexaene-13-carbonitrile] was above 7.00.
Turning to `CCN1C(=O)N(c2c(F)cc(NCCN[C@H]3C[C@H](O)C3)cc2F)c2cc(C#N)ccc2-c2cc(C(F)(F)F)cnc21` [1-224, 10-{2,6-difluoro-4-[(2-{[(1r,3r)-3-hydroxycyclobutyl]amino}ethyl)amino]phenyl}-8-ethyl-9-oxo-4-(trifluoromethyl)-6,8,10-triazatricyclo[9.4.0.0^2,7]pentadeca-1(11),2(7),3,5,12,14-hexaene-13-carbonitrile], the pKi is above 7.00.
As to `CCN1C(=O)N(c2c(F)cc(NCCNCC(N)CO)cc2F)c2cc(C#N)ccc2-c2cc(Cl)cnc21` (stereo not drawn) [1-225, 10-[4-({2-[(2-amino-3-hydroxypropyl)amino]ethyl}amino)-2,6-difluorophenyl]-4-chloro-8-ethyl-9-oxo-6,8,10-triazatricyclo[9.4.0.0^2,7]pentadeca-1(11),2(7),3,5,12,14-hexaene-13-carbonitrile], the pKi was above 7.00.
The value for `CCN1C(=O)N(c2c(F)cc(NCCNCCO)cc2F)c2cc(C)ccc2-c2cc(F)cnc21` [1-226, 10-[2,6-difluoro-4-({2-[(2-hydroxyethyl)amino]ethyl}amino)phenyl]-8-ethyl-4-fluoro-13-methyl-6,8,10-triazatricyclo[9.4.0.0^2,7]pentadeca-1(11),2(7),3,5,12,14-hexaen-9-one] was above 7.00; that for `CCN1C(=O)N(c2c(F)cc(NCCNCC(=O)O)cc2F)c2cc(C#N)ccc2-c2cc(C(F)(F)F)cnc21` [1-227, 2-{[2-({4-[13-cyano-8-ethyl-9-oxo-4-(trifluoromethyl)-6,8,10-triazatricyclo[9.4.0.0^2,7]pentadeca-1(11),2(7),3,5,12,14-hexaen-10-yl]-3,5-difluorophenyl}amino)ethyl]amino}acetic acid] was above 7.00.
With `CCN1C(=O)N(c2c(F)cc(NCCNCCN3CCNC3=O)cc2F)c2cc(C#N)ccc2-c2cc(Cl)cnc21` [1-228, 4-chloro-10-{2,6-difluoro-4-[(2-{[2-(2-oxoimidazolidin-1-yl)ethyl]amino}ethyl)amino]phenyl}-8-ethyl-9-oxo-6,8,10-triazatricyclo[9.4.0.0^2,7]pentadeca-1(11),2(7),3,5,12,14-hexaene-13-carbonitrile] the figure was above 7.00; with `CCN1C(=O)N(c2c(F)cc(NCCNCCOCCC(=O)O)cc2F)c2cc(C#N)ccc2-c2cc(Cl)cnc21` [1-229, 3-[2-({2-[(4-{4-chloro-13-cyano-8-ethyl-9-oxo-6,8,10-triazatricyclo[9.4.0.0^2,7]pentadeca-1(11),2(7),3,5,12,14-hexaen-10-yl}-3,5-difluorophenyl)amino]ethyl}amino)ethoxy]propanoic acid], above 7.00.

In general, pKi refers to the Ki on a negative log10 scale, so that one unit is a factor of ten.
